Results on five compounds are retold here after patent US10434101B2, “Heterocyclic compounds and uses thereof” (Celgene CAR LLC, priority 2010, dated 2019).

The structures appear in SMILES notation. Read-outs that look alike come from different tables or passages of the source.

In test [1] the target is EGFR double mutation L858R/T790M (H1975 cells) (Homo sapiens (Human), UniProt P00533, L858R/T790M). Briefly: Phospho-EGFR signaling (immunoblotting, 1 hr) in H1975 cells. Type of test: cell-based. To be noted: signaling EC50 WT (A431) / H1975. As for the experimental part: (§1) A431 human epidermoid carcinoma, H1975 human NSCLC and HCC827 human NSCLC adenocarcinoma cells were obtained from the American Type Culture Center (Manassas, Va.). A431 cells were grown in DMEM (Invitrogen, Carlsbad, Calif.) supplemented with 10% FBS (HyClone, South Logan, Utah) and 1% Penicillin-Streptomycin (P/S, Lonza, Walkersville, Md.).
(§2) All primary antibodies were obtained from Cell Signaling (Danvers, Mass.) and used at 1:1000. Secondary antibodies were used at 1:10,000. Goat anti-mouse IgG IRDye 800CW antibody was obtained from LiCor Biosciences (Lincoln, Nebr.) and goat anti-rabbit IgG Alexa Fluor 680 was obtained from Invitrogen.
(§3) Cells were grown in 12-well plates (Corning, Coring, N.Y.) to 90% confluence and then incubated in low-serum (0.1% FBS) media for 16-18 hr. […] A431 cells were then stimulated with 50 ng/ml EGF (Peprotech, Rocky Hill, N.J.) for 15 min. After treatment, cell monolayers were washed with cold PBS (Invitrogen) and immediately lysed by scrapping into 60 uL cold Cell Extraction Buffer (Invitrogen) supplemented with Complete Protease inhibitors (Roche, Indianapolis, Ind.) and PhosphoSTOP (Roche) phosphatase inhibitors.
(§4) Phospho-protein signals were quantitated using Odyssey Infrared Imaging (Li-Cor Biosciences).
(§5) To assess phosphor-EGFR signaling, blots were probed with rabbit anti-Phospho-EGFR (Y1068) and mouse total anti-EGFR antibodies. Phospho-EGFR signal was normalized to total EGFR expression for each sample. […] Normalized data was fitted using a sigmoidal curve analysis program (Graph Pad Prism version 5) with variable Hill slope to determine the EC50 values.
Background: In western blotting, separated proteins are transferred to a membrane and probed.

Test [2] deals with EGFR delE746-A750 deletion mutation (HCC827 cells) (Homo sapiens (Human), UniProt P00533, DEL746-750). Briefly: Phospho-EGFR signaling (immunoblotting, 1 hr) in HCC827 cells. Type of test: cell-based. To be noted: signaling EC50 WT (A431) / HCC827. The protocol:
as §1, §2, §3, §4, §5

Another test deals with A431 cells (WT EGFR). The experiment in a line: Cell proliferation (CellTiter Glo, 72 hr) in A431 cells. It counts as cell-based. Particulars: Homo sapiens. The protocol: as §1
(§6) Cells were plated in Growth Media supplemented with 5% FBS and 1% P/S at a density of 3,000 cells per well in 96 well tissue culture plates (Corning). […] Growth inhibition (GI50) values were determined by Graph Pad Prism.
Background: Cellular ATP, detected with luciferase, serves as a proxy for viable cell number.

Test [3] relates to H1975 cells (EGFR L858R/T790M). Briefly: Cell proliferation (CellTiter Glo, 72 hr) in H1975 cells. Particulars: for GI50: Homo sapiens. Type of test: cell-based, human. The protocol:
as §1, §6

Test [4] concerns HCC827 cells (EGFR delE746-A750). The experiment in a line: Cell proliferation (CellTiter Glo, 72 hr) in HCC827 cells. It counts as cell-based, human. Particulars: for GI50: Homo sapiens. The protocol:
as §1, §6

A further test concerns the target EGFR-WT (Homo sapiens (Human), UniProt P00533). The experiment in a line: Omnia assay, potency against EGFR (WT) active enzyme. To be noted: [EGFR-WT]=5 nM, [ATP]=15 uM, 30 min pre-incubation. Type of test: biochemical. The protocol: Kinase reactions were started with the addition of 45 μL of the ATP/Tyr-Sox peptide substrate mix and monitored every 71 seconds for 60 minutes at λex360/λem485 in a Synergy^4 plate reader from BioTek (Winooski, Vt.).

For the next test, the target named is pEGFR in H1975 cells (Homo sapiens (Human), UniProt P00533, L858R/T790M). The experiment in a line: Washout experiment in H1975 cells (pEGFR). It counts as cell-based. To be noted: 500 nM for 1 hr; for inhibition at 0.5 µM: NCI-H1975. As for the experimental part: Washout Experiment in H1975 Cells Containing EGFR Deletion/T790M Mutation
Cells were plated in Growth Media supplemented with 10% FBS and 1% P/S at a density of 2.0×10^5 cells per well in 12 well tissue culture plates. Cells were allowed to settle down for 4 hrs and then maintained in low-serum (0.1% FBS) media overnight.
The following morning the media was removed and the cells were treated with 500 nM test compound in low-serum media for 1 hr. The cells were washed free of compound 2× with PBS (Invitrogen). One set of cells were immediately lysed as indicated above as the 0 hr time point. The remaining cells were incubated with complete RPMI-1640 growth media (10% FBS) for 1, 3, 6 and 24 hr. For the first 1 hr, cells were washed 2× with PBS every 30 min. DMSO (0.5%) controls were collected at the 0, 3, 6 and 24 hr time points.

Where [5] appears, read: A-431, A431 cells, 72 hr, read-out: WT EGFR GI50.
Setting [6] is: NCI-H1975, H1975 cells, 72 hr, read-out: H1975 GI50.
Where [7] appears, read: HCC827 cells, 72 hr, read-out: HCC827 GI50.

Take `C=CC(=O)Nc1cccc(Oc2nc(Nc3ccc(N4CCN(C(=O)OC(C)(C)C)CC4)cc3OC)ncc2Cl)c1` [Compound I-46, tert-butyl 4-(4-(4-(3-acrylamidophenoxy)-5-chloropyrimidin-2-ylamino)-3-methoxyphenyl)piperazine-1-carboxylate]: the “Ratio WT/mutant (H1975)” value in test [1] was greater than 10. For the same compound, the “Ratio WT/mutant (HCC827)” value in test [2] is given as greater than 50. Besides, the GI50 in the test on A431 cells (WT EGFR) (A-431, 72 h, read-out: WT EGFR GI50) was greater than 1000 nM; in test [3] (NCI-H1975, 72 h, read-out: H1975 GI50), 500 to 1000 nM; in test [4] (HCC827, 72 h, read-out: HCC827 GI50), 100 to 500 nM.
With `C=CC(=O)Nc1cccc(Nc2nc(Nc3ccc(N4CCN(S(C)(=O)=O)CC4)cc3OC)ncc2C(F)(F)F)c1` [Compound I-17, N-(3-(2-(2-methoxy-4-(4-(methylsulfonyl)piperazin-1-yl)phenylamino)-5-(trifluoromethyl)pyrimidin-4-ylamino)phenyl)acrylamide], in test [1], the “Ratio WT/mutant (H1975)” value is recorded as greater than 30. The “Ratio WT/mutant (HCC827)” value in test [2] is recorded as greater than 5. In addition, the values for the GI50 (in the test with A431 cells (WT EGFR) (setting [5]); in test [3] (setting [6]); in test [4] (setting [7])) were greater than 1000 nM, 100 to 500 nM and 10 to 100 nM, respectively.
As to `C=CC(=O)Nc1cccc(Nc2nc(Nc3ccc(N4CCOCC4)cc3OC)ncc2Cl)c1` [Compound I-15, N-(3-(5-chloro-2-(2-methoxy-4-morpholinophenylamino)pyrimidin-4-ylamino)phenyl)acrylamide], the IC50 on EGFR-WT lay in the range of 30 to 100 nM. Further, the results for the GI50 (with A431 cells (WT EGFR) (setting [5]); in test [3] (setting [6]); in test [4] (setting [7])) were greater than 1000 nM, 500 to 1000 nM and 100 to 500 nM, respectively. In addition, in test [3] (proliferation GI50 WT (A431) / H1975), the “Ratio WT/mutant (H1975)” value is listed as greater than 1. For the same compound, in test [4] (proliferation GI50 WT (A431) / HCC827), the “Ratio WT/mutant (HCC827)” value is recorded as greater than 10.
Regarding `C=CC(=O)Nc1cccc(Nc2nc(Nc3ccc(N4CCOCC4)cc3OC)ncc2C(F)(F)F)c1` [Compound I-2, N-(3-(2-(2-methoxy-4-morpholinophenylamino)-5-(trifluoromethyl)pyrimidin-4-ylamino)phenyl)acrylamide], the “Ratio WT/mutant (H1975)” value in test [1] is greater than 50. For the same compound, the GI50 was greater than 1000 nM with A431 cells (WT EGFR) (setting [5]); greater than 1000 nM with A431 cells (WT EGFR) (A-431, Table 2, A431 cells express WT EGFR, read-out: Comparative GI50 Values, A431); 10 to 100 nM in test [3] (setting [6]); 10 to 100 nM in test [3] (NCI-H1975, Table 2, H1975 express EGFR L858R/T790M, read-out: Comparative GI50 Values, H1975); 10 to 100 nM in test [4] (setting [7]); 10 to 100 nM in test [4] (Table 2, HCC827 express EGFR delE746-A750, read-out: Comparative GI50 Values, HCC827). Moreover, at pEGFR in H1975 cells (24 h after compound removal, by new protein synthesis), the pEGFR activity restored is 40-60%. The inhibition at 0.5 µM at pEGFR in H1975 cells (1 hr after compound removal, read-out: pEGFR phosphorylation inhibited) fell in the range of 80 to 100%; at pEGFR in H1975 cells (for at least 8 hours after compound was removed, read-out: pEGFR remained inhibited), 60 to 90%.
Turning to `C=CC(=O)Nc1cccc(Nc2nc(Nc3ccc(N4CCOCC4)cc3OC(F)F)ncc2C(F)(F)F)c1` [Compound I-14, N-(3-(2-(2-(difluoromethoxy)-4-morpholinophenylamino)-5-(trifluoromethyl)pyrimidin-4-ylamino)phenyl)acrylamide], in test [1], the “Ratio WT/mutant (H1975)” value is given as greater than 15. Also, in test [2], the “Ratio WT/mutant (HCC827)” value is reported as greater than 15. The values for the GI50 (in the test on A431 cells (WT EGFR) (setting [5]); in test [3] (setting [6]); in test [4] (setting [7])) were greater than 1000 nM, 100 to 500 nM and 10 to 100 nM, respectively.

One may read the GI50 as the concentration giving 50% growth inhibition. The IC50 is the concentration needed to halve the response being measured.
